What was measured:
[1] = system: ELIC R300A; parameters: method as in Henault et al.[9], [18], [29]; details: Xenopus laevis oocytes; ±SD; n=11; ref Henault et al.[9], [18], [29]; cited from earlier work
[2] = target: T1, ELIC P304A (Dickeya chrysanthemi, UniProt P0C7B7, P304A); experiment: TEVC cysteamine-induced current, ELIC P304A; format: cell-based; details: Xenopus laevis oocytes; EC50 values were not obtained
T1 construct: expressed in transfected cells; host or cells: Xenopus laevis oocytes injected with cRNA (pTLN plasmid)
T1 sequence (P0C7B7 whole entry P304A): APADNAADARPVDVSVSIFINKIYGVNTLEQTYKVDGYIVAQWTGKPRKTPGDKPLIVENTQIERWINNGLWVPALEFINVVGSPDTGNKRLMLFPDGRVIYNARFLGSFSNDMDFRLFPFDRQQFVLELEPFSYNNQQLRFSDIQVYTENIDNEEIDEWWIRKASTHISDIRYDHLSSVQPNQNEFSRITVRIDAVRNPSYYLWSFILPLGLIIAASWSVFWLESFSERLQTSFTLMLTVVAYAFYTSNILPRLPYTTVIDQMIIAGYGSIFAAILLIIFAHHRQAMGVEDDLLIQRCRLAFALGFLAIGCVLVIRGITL
Text: (§1) To examine how different physical interactions at the M4-M1/M3 interface in both GLIC and ELIC (Fig. 1) influence function, we mutated each residue to Ala, and characterized how each mutation influenced agonist-induced channel gating using two-electrode voltage clamp electrophysiology. Both GLIC and ELIC are cation-selective ion channels that transiently gate open in response to agonist binding, although GLIC responds to protons while ELIC responds to primary amines, such as cysteamine, [34].
(§2) Stage V–VI oocytes were collected as previously described, injected with cRNA, and allowed to incubate one to four days at 16 °C in ND96 + buffer (5 mM HEPES, 96 mM NaCl, 2 mM KCl, 1 mM MgCl2, 1 mM CaCl2, and 2 mM Pyruvate). Whole cell currents were recorded using a two-electrode voltage clamp apparatus (OC-725C oocyte clamp; Holliston, MA). For GLIC, whole cell currents were recorded from injected oocytes (3–20 ng cRNA) immersed in MES buffer (140 mM NaCl, 2.8 mM KCl, 2 mM MgCl2, and 10 mM MES). Currents through the plasma membrane in response to pH jumps (pH 7.3 down to the indicated pH values) were measured with the transmembrane voltage clamped at voltages between −20 mV and −40 mV depending on the level of expression, typically −20 mV. […]

[3] = target: T2, ELIC F281A (Dickeya chrysanthemi, UniProt P0C7B7, F281A); experiment: TEVC cysteamine-induced current, ELIC F281A; format: cell-based; details: Xenopus laevis oocytes; ±SD; n=8
T2 construct: expressed in transfected cells; host or cells: Xenopus laevis oocytes injected with cRNA
T2 sequence (P0C7B7 whole entry F281A): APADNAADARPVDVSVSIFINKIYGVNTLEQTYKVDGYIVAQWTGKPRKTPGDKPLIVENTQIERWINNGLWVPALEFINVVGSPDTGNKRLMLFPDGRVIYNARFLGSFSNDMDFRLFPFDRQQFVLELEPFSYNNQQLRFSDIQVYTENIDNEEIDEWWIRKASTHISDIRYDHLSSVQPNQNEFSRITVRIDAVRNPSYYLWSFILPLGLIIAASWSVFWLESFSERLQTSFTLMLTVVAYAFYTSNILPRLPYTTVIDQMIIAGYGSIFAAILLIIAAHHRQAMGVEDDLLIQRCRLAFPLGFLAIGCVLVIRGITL
Text: as §1, §2

[4] = target: T3, ELIC Q263A (Dickeya chrysanthemi, UniProt P0C7B7, Q263A); experiment: TEVC cysteamine-induced current, ELIC Q263A; format: cell-based; details: Xenopus laevis oocytes; ±SD; n=8
T3 construct: expressed in transfected cells; host or cells: Xenopus laevis oocytes injected with cRNA
T3 sequence (P0C7B7 whole entry Q263A): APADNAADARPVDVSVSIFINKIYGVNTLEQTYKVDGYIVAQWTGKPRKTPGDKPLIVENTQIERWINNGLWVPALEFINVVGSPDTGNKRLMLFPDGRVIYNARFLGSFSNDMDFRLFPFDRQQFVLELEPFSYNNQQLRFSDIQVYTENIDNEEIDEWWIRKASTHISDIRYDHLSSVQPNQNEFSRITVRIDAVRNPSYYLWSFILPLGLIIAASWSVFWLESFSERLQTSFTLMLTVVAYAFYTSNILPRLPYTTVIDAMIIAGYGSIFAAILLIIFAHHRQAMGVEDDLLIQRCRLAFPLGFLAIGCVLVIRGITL
Text: as §1, §2

[5] = system: ELIC L314A; parameters: method as in Henault et al.[9], [18], [29]; details: Xenopus laevis oocytes; ±SD; n=8; ref Henault et al.[9], [18], [29]; cited from earlier work
[6] = target: T4, ELIC L213A (Dickeya chrysanthemi, UniProt P0C7B7, L213A); experiment: TEVC cysteamine-induced current, ELIC L213A; format: cell-based; details: Xenopus laevis oocytes; ±SD; n=8
T4 construct: expressed in transfected cells; host or cells: Xenopus laevis oocytes injected with cRNA
T4 sequence (P0C7B7 whole entry L213A): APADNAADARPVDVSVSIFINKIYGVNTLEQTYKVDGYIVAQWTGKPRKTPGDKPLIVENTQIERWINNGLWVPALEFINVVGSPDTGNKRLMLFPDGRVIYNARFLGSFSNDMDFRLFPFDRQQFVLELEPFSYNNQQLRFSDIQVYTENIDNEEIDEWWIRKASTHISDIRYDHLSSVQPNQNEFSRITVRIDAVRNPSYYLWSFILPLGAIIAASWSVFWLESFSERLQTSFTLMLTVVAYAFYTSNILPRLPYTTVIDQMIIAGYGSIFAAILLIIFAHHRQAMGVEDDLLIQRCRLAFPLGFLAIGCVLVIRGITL
Text: as §1, §2

[7] = target: T5, ELIC V260A (Dickeya chrysanthemi, UniProt P0C7B7, V260A); experiment: TEVC cysteamine-induced current, ELIC V260A; format: cell-based; details: Xenopus laevis oocytes; ±SD; n=8
T5 construct: expressed in transfected cells; host or cells: Xenopus laevis oocytes injected with cRNA
T5 sequence (P0C7B7 whole entry V260A): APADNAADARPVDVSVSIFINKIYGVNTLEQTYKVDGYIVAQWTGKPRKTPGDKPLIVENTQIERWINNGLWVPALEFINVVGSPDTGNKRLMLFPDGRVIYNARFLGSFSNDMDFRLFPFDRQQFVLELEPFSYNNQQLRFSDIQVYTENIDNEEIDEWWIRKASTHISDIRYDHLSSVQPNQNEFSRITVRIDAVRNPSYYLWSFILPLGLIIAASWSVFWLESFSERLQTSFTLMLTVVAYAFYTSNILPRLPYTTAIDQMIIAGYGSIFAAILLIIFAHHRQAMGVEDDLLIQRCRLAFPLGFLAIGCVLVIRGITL
Text: as §1, §2

[8] = system: ELIC I319A; parameters: method as in Henault et al.[9], [18], [29]; details: Xenopus laevis oocytes; ±SD; n=11; ref Henault et al.[9], [18], [29]; cited from earlier work
[9] = system: ELIC F307A; parameters: method as in Henault et al.[9], [18], [29]; details: Xenopus laevis oocytes; ±SD; n=8; ref Henault et al.[9], [18], [29]; cited from earlier work
[10] = target: T6, ELIC I215A (Dickeya chrysanthemi, UniProt P0C7B7, I215A); experiment: TEVC cysteamine-induced current, ELIC I215A; format: cell-based; details: Xenopus laevis oocytes; ±SD; n=8
T6 construct: expressed in transfected cells; host or cells: Xenopus laevis oocytes injected with cRNA
T6 sequence (P0C7B7 whole entry I215A): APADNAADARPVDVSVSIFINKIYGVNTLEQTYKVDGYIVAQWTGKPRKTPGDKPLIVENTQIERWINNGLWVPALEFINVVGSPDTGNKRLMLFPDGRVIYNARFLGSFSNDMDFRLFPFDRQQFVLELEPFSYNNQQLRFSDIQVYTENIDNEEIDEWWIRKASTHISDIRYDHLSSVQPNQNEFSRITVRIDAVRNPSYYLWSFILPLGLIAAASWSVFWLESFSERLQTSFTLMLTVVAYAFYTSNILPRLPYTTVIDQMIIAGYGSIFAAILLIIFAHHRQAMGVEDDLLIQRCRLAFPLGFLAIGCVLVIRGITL
Text: as §1, §2

[11] = target: T7, ELIC W219A + F307A (Dickeya chrysanthemi, UniProt P0C7B7, F307A/W219A); experiment: TEVC cysteamine-induced current, ELIC W219A + F307A; format: cell-based; details: Xenopus laevis oocytes; ±SD; n=8
T7 construct: expressed in transfected cells; host or cells: Xenopus laevis oocytes injected with cRNA (pTLN plasmid)
T7 sequence (P0C7B7 whole entry W219A/F307A): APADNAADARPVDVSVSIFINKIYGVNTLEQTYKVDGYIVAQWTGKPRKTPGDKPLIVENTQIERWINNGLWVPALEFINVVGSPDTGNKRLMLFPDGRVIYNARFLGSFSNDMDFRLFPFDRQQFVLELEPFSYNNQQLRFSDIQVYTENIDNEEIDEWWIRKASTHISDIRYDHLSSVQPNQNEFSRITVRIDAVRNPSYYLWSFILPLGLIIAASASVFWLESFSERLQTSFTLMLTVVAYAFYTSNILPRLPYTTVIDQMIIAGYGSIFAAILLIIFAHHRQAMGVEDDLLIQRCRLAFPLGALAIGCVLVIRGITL
Text: as §1, §2

[12] = system: ELIC F303A; parameters: method as in Henault et al.[9], [18], [29]; details: Xenopus laevis oocytes; ±SD; n=10; ref Henault et al.[9], [18], [29]; cited from earlier work
[13] = target: T8, ELIC F222A (Dickeya chrysanthemi, UniProt P0C7B7, F222A); experiment: TEVC cysteamine-induced current, ELIC F222A; format: cell-based; details: Xenopus laevis oocytes
T8 construct: expressed in transfected cells; host or cells: Xenopus laevis oocytes injected with cRNA
T8 sequence (P0C7B7 whole entry F222A): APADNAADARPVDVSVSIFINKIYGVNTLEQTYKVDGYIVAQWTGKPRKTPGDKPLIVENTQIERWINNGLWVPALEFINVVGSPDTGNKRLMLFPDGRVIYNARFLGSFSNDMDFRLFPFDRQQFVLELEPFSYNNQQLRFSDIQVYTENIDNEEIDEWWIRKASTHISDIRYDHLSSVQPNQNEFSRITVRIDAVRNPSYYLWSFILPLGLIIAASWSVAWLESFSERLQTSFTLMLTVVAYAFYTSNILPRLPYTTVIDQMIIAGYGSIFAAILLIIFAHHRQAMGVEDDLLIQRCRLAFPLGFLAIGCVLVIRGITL
Text: as §1
Stage V–VI oocytes were collected as previously described, injected with cRNA, and allowed to incubate one to four days at 16 °C in ND96 + buffer (5 mM HEPES, 96 mM NaCl, 2 mM KCl, 1 mM MgCl2, 1 mM CaCl2, and 2 mM Pyruvate). Whole cell currents were recorded using a two-electrode voltage clamp apparatus (OC-725C oocyte clamp; Holliston, MA). For GLIC, whole cell currents were recorded from injected oocytes (3–20 ng cRNA) immersed in MES buffer (140 mM NaCl, 2.8 mM KCl, 2 mM MgCl2, and 10 mM MES). Currents through the plasma membrane in response to pH jumps (pH 7.3 down to the indicated pH values) were measured with the transmembrane voltage clamped at voltages between −20 mV and −40 mV depending on the level of expression, typically −20 mV. For ELIC, whole cell currents were recorded from injected oocytes (0.1–10 ng cRNA) immersed in HEPES buffer (150 mM NaCl, 0.5 mM BaCl2, and 10 mM HEPES, pH 7.0). In most cases, currents through the plasma membrane in response to cysteamine concentration jumps (from 0 mM up to the indicated values) were measured with the transmembrane voltage clamped at −30 mV.
Dose responses for each mutant were acquired from at least two different batches of oocytes. Each individual dose-response experiment was fit with a variable slope sigmoidal dose-response and the individual EC50 values from each experiment averaged to give the reported EC50 values ± standard deviation.

[14] = system: ELIC V315A; parameters: method as in Henault et al.[9], [18], [29]; details: Xenopus laevis oocytes; ±SD; n=9; ref Henault et al.[9], [18], [29]; cited from earlier work
[15] = target: T9, ELIC S271A (Dickeya chrysanthemi, UniProt P0C7B7, S271A); experiment: TEVC cysteamine-induced current, ELIC S271A; format: cell-based; details: Xenopus laevis oocytes; ±SD; n=8
T9 construct: expressed in transfected cells; host or cells: Xenopus laevis oocytes injected with cRNA
T9 sequence (P0C7B7 whole entry S271A): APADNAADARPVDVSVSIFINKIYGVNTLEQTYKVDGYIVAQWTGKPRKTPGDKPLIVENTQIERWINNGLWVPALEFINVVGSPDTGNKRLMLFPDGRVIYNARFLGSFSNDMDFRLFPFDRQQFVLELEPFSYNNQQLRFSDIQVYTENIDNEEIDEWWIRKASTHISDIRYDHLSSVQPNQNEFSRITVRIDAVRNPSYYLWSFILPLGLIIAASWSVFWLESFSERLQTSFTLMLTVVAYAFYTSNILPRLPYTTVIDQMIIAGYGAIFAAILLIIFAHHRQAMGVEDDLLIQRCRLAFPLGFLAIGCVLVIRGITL
Text: as §1, §2

[16] = target: T10, ELIC W223A + R300A (Dickeya chrysanthemi, UniProt P0C7B7, R300A/W223A); experiment: TEVC cysteamine-induced current, ELIC W223A + R300A; format: cell-based; details: Xenopus laevis oocytes; ±SD; n=8
T10 construct: expressed in transfected cells; host or cells: Xenopus laevis oocytes injected with cRNA (pTLN plasmid)
T10 sequence (P0C7B7 whole entry W223A/R300A): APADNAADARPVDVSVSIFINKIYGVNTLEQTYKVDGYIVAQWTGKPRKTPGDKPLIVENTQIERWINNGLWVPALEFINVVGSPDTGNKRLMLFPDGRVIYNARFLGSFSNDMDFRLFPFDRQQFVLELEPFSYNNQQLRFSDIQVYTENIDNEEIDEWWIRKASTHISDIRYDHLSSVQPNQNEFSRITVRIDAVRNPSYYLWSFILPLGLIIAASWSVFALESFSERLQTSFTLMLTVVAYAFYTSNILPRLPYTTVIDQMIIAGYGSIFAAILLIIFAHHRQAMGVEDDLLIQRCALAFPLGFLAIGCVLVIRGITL
Text: as §1, §2

[17] = system: ELIC G318A; parameters: method as in Henault et al.[9], [18], [29]; details: Xenopus laevis oocytes; ±SD; n=10; ref Henault et al.[9], [18], [29]; cited from earlier work
[18] = target: T11, ELIC F222A + C299A (Dickeya chrysanthemi, UniProt P0C7B7, C299A/F222A); experiment: TEVC cysteamine-induced current, ELIC F222A + C299A; format: cell-based; details: Xenopus laevis oocytes; ±SD; n=8
T11 construct: expressed in transfected cells; host or cells: Xenopus laevis oocytes injected with cRNA (pTLN plasmid)
T11 sequence (P0C7B7 whole entry F222A/C299A): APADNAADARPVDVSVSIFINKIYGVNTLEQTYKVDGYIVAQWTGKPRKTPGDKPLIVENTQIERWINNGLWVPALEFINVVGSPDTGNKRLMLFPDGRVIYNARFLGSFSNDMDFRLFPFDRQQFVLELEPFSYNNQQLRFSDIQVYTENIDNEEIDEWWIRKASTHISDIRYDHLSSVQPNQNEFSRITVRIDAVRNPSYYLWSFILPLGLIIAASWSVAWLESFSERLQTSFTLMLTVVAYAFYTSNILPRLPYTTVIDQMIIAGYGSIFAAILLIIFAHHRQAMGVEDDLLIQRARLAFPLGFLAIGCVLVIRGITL
Text: as §1, §2

NCCS [cysteamine]
EC50 [1]: 400 ± 50 µM | −logEC50 [1]: 3.40 ± 0.05 | desensitization kinetics [2]: substantially altered desensitization kinetics | EC50 [3]: 880 ± 50 µM | −logEC50 [3]: 3.06 ± 0.02 | EC50 [4]: 580 ± 40 µM | −logEC50 [4]: 3.24 ± 0.03 | EC50 [5]: 420 ± 50 µM | −logEC50 [5]: 3.38 ± 0.05 | EC50 [6]: 320 ± 20 µM | −logEC50 [6]: 3.49 ± 0.03 | EC50 [7]: 460 ± 50 µM | −logEC50 [7]: 3.34 ± 0.05 | EC50 [8]: 860 ± 160 µM | −logEC50 [8]: 3.06 ± 0.08 | EC50 [9]: 570 ± 90 µM | −logEC50 [9]: 3.24 ± 0.07 | EC50 [10]: 320 ± 40 µM | −logEC50 [10]: 3.49 ± 0.05 | EC50 [11]: 450 ± 70 µM | −logEC50 [11]: 3.35 ± 0.07 | EC50 [12]: 190 ± 70 µM | −logEC50 [12]: 3.73 ± 0.17 | gain-of-function relative to WT ELIC ([13]; shift versus WT): 10 fold | EC50 ([13]; ±SD, n=8): 90 ± 30 µM | −logEC50 ([13]; ±SD, n=8): 4.05 ± 0.15 | EC50 [14]: 600 ± 80 µM | −logEC50 [14]: 3.22 ± 0.06 | EC50 [15]: 820 ± 50 µM | −logEC50 [15]: 3.09 ± 0.03 | EC50 [16]: 800 ± 110 µM | −logEC50 [16]: 3.10 ± 0.05 | EC50 [17]: 760 ± 130 µM | −logEC50 [17]: 3.12 ± 0.08 | EC50 [18]: 100 ± 20 µM
